Measured values reported in ChEMBL document CHEMBL1201862, “PubChem BioAssay data set” (2004).
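Five compound concentrations were applied to cells in 96-well plates for 48 hours; endpoints were derived by simple linear interpolation of the resulting dose-response curve. The concentration for 50% growth inhibition is given as GI50.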 Active and inactive are the calls of the source. No stated cut-off is given here; in the data, active = GI50 up to about 1.1 µM and inactive = higher.

Legend:
Assay in all cases: DTP human tumour cell line panel, 48 h
CCRF-CEM = system: CCRF-CEM
HCT-15 = system: HCT-15
KM12 = system: KM12
M19-MEL = system: M19-MEL
MOLT-4 = system: MOLT-4
NCI-H460 = system: NCI-H460
OVCAR-3 = system: OVCAR-3
OVCAR-5 = system: OVCAR-5
SN12C = system: SN12C
SNB-19 = system: SNB-19
SNB-78 = system: SNB-78
UACC-62 = system: UACC-62
HOP-92 = system: HOP-92
RXF 393 = system: RXF 393
SK-MEL-28 = system: SK-MEL-28
SNB-75 = system: SNB-75
DU-145 = system: DU-145
MCF7 = system: MCF7
MDA-MB-231 = system: MDA-MB-231
PC-3 = system: PC-3

SMILES	GI50 (CCRF-CEM)	GI50 (HCT-15) [µM]	GI50 (KM12)	GI50 (M19-MEL)	GI50 (MOLT-4)	GI50 (NCI-H460)	GI50 (OVCAR-3)	GI50 (OVCAR-5)	GI50 (SN12C)	GI50 (SNB-19)	GI50 (SNB-78)	GI50 (UACC-62)	GI50 (HOP-92)	GI50 (RXF 393)	GI50 (SK-MEL-28)	GI50 (SNB-75)	GI50 (DU-145)	GI50 (MCF7)	GI50 (MDA-MB-231)	GI50 (PC-3)
COC(=O)C1CC2C=CC=CC(=O)C2(C)C1 (stereo not drawn)	21.6 µM (inactive)	31	45.7 µM (inactive)	55.5 µM (inactive)	25.6 µM (inactive)	41.8 µM (inactive)	> 100 µM (inactive)	> 100 µM (inactive)	81.1 µM (inactive)	76.7 µM (inactive)	30.7 µM (inactive)	39.9 µM (inactive)								
OCC1OC(NO)C(O)C(O)C1O (stereo not drawn)	> 100 µM (inactive)	> 100	> 100 µM (inactive)	> 100 µM (inactive)	> 100 µM (inactive)	> 100 µM (inactive)	> 100 µM (inactive)	> 100 µM (inactive)	> 100 µM (inactive)	> 100 µM (inactive)	> 100 µM (inactive)	> 100 µM (inactive)	> 100 µM (inactive)	> 100 µM (inactive)	> 100 µM (inactive)					
C[N+](C)(C)CC(=O)N/N=C(/Cc1cc(=O)oc2cc(O)ccc12)C(=O)Nc1ccc(Cl)cc1	> 100 µM (inactive)		> 100 µM (inactive)	> 100 µM (inactive)	> 100 µM (inactive)	> 100 µM (inactive)	> 100 µM (inactive)	> 100 µM (inactive)	> 100 µM (inactive)	> 100 µM (inactive)		> 100 µM (inactive)		> 100 µM (inactive)	> 100 µM (inactive)					
CC(C)N(C(=O)C12C3C4C1C1C2C3C41C(O)C(C)(C)C)C(C)C (stereo not drawn)	> 50 µM (inactive)	> 50		> 50 µM (inactive)	> 50 µM (inactive)		> 50 µM (inactive)		> 50 µM (inactive)	> 50 µM (inactive)	> 50 µM (inactive)	> 50 µM (inactive)	34.7 µM (inactive)		> 50 µM (inactive)	26.2 µM (inactive)				
CC(C)(C)c1cc(C(=O)O)c(C(c2ccccc2)c2ccccc2C(=O)O)c(C(=O)O)c1 (stereo not drawn)	> 100 µM (inactive)	> 100	> 100 µM (inactive)		> 100 µM (inactive)	> 100 µM (inactive)	> 100 µM (inactive)	> 100 µM (inactive)	21.9 µM (inactive)	> 100 µM (inactive)	> 100 µM (inactive)	> 100 µM (inactive)		> 100 µM (inactive)	> 100 µM (inactive)	21.7 µM (inactive)				
CCc1cccc(C)c1N1C(=O)C(=O)C(c2nc3ccccc3o2)C(=O)C1=O	> 100 µM (inactive)	> 100	> 100 µM (inactive)	> 100 µM (inactive)	> 100 µM (inactive)	> 100 µM (inactive)	> 100 µM (inactive)	> 100 µM (inactive)	> 100 µM (inactive)	> 100 µM (inactive)	> 100 µM (inactive)	> 100 µM (inactive)	> 100 µM (inactive)		> 100 µM (inactive)	45.7 µM (inactive)				
CN/N=C(\C)c1c(O)cc(C)oc1=O	> 100 µM (inactive)	> 100	> 100 µM (inactive)	> 100 µM (inactive)	> 100 µM (inactive)	> 100 µM (inactive)			> 100 µM (inactive)	> 100 µM (inactive)		> 100 µM (inactive)	> 100 µM (inactive)		> 100 µM (inactive)	> 100 µM (inactive)				
CC1(C)O[C@@H](CC/C=C/CO)[C@H](CC/C=C/CO)O1	> 100 µM (inactive)	> 100	> 100 µM (inactive)	> 100 µM (inactive)	> 100 µM (inactive)	> 100 µM (inactive)	> 100 µM (inactive)	> 100 µM (inactive)	> 100 µM (inactive)	> 100 µM (inactive)	> 100 µM (inactive)		> 100 µM (inactive)		> 100 µM (inactive)	> 100 µM (inactive)				
CC(C)NCCNC(=O)c1ccccc1Nc1c(Cl)cccc1Cl	10.5 µM (inactive)	13	16.9 µM (inactive)	8.38 µM (inactive)	8.69 µM (inactive)	3.29 µM (inactive)	12.6 µM (inactive)	7.38 µM (inactive)	13.2 µM (inactive)	15.3 µM (inactive)	14.6 µM (inactive)	15.8 µM (inactive)		5.08 µM (inactive)	14.4 µM (inactive)	4.63 µM (inactive)				
O=C(/C=C\c1cccc2ccccc12)c1ccc(F)cc1	13.6 µM (inactive)	15.1	15 µM (inactive)	19.6 µM (inactive)	16 µM (inactive)	17.8 µM (inactive)	17.1 µM (inactive)	16.6 µM (inactive)	17.3 µM (inactive)	16.6 µM (inactive)	19.8 µM (inactive)	13.9 µM (inactive)	11.9 µM (inactive)		13.2 µM (inactive)	30.5 µM (inactive)				
CCOC(=O)c1cc(/C=C/C(C)=C/C(=O)OC)n(C)c1C	61.5 µM (inactive)	63.8	59.2 µM (inactive)	> 100 µM (inactive)	41.7 µM (inactive)	> 100 µM (inactive)	58.3 µM (inactive)	> 100 µM (inactive)	> 100 µM (inactive)	> 100 µM (inactive)	> 100 µM (inactive)	50.6 µM (inactive)	> 100 µM (inactive)							
O=C(O)CCN(CCCN(CCC(=O)O)CCC(=O)O)CCC(=O)O	> 100 µM (inactive)	> 100	> 100 µM (inactive)	> 100 µM (inactive)	> 100 µM (inactive)	> 100 µM (inactive)	> 100 µM (inactive)	> 100 µM (inactive)	> 100 µM (inactive)			> 100 µM (inactive)	> 100 µM (inactive)		> 100 µM (inactive)	74.8 µM (inactive)				
C[Si](C)(C)CN1C(=O)c2ccccc2C1(O)c1ccccc1 (stereo not drawn)	66.4 µM (inactive)	> 68.4	59.7 µM (inactive)		24.2 µM (inactive)	65.6 µM (inactive)	> 86.3 µM (inactive)	> 100 µM (inactive)	> 89.3 µM (inactive)	> 100 µM (inactive)	> 83.9 µM (inactive)	62.7 µM (inactive)	44.6 µM (inactive)	75.2 µM (inactive)	> 100 µM (inactive)	84.7 µM (inactive)				
N#C/C(N)=N/c1ccccc1	> 100 µM (inactive)	> 100	> 100 µM (inactive)	> 100 µM (inactive)	> 100 µM (inactive)	> 100 µM (inactive)	> 100 µM (inactive)	> 100 µM (inactive)	> 100 µM (inactive)	> 100 µM (inactive)		> 100 µM (inactive)	> 100 µM (inactive)		> 100 µM (inactive)	> 100 µM (inactive)				
CC(=O)C=C1Nc2ccccc2N1	> 100 µM (inactive)	> 100	> 100 µM (inactive)	> 100 µM (inactive)	> 100 µM (inactive)	> 100 µM (inactive)	> 100 µM (inactive)	> 100 µM (inactive)	> 100 µM (inactive)	> 100 µM (inactive)	> 100 µM (inactive)	> 100 µM (inactive)		> 100 µM (inactive)	> 100 µM (inactive)	36.9 µM (inactive)				
COC(=O)C(=O)C1(CCC(C)=O)c2ccccc2-c2c(C)ccc(C)c21 (stereo not drawn)	37.1 µM (inactive)	32.6	43 µM (inactive)	64 µM (inactive)	23.1 µM (inactive)	33 µM (inactive)	32 µM (inactive)	> 100 µM (inactive)	69.2 µM (inactive)	> 100 µM (inactive)	19 µM (inactive)	7.53 µM (inactive)		32.1 µM (inactive)	> 100 µM (inactive)	53 µM (inactive)				
COC1C(O)=C2C(=O)O/C(C)=C/C=C/C=C/C=C\CC(c3ccccc3)NC(=O)\C=C/C=C\C=C\C=C\[C@@]2(C)[C@@H]1O (stereo partly drawn)	< 0.01 µM (active)	< 0.01	< 0.0146 µM (active)	0.0538 µM (active)	< 0.0181 µM (active)	< 0.01 µM (active)	< 0.0189 µM (active)	0.0234 µM (active)	0.0986 µM (active)	< 0.01 µM (active)		0.0675 µM (active)	< 0.01 µM (active)	0.0128 µM (active)	0.0155 µM (active)	< 0.01 µM (active)	0.0117 µM (active)	< 0.01 µM (active)	< 0.01 µM (active)	< 0.01 µM (active)
Cc1ccc2[nH]c(Sc3c([N+](=O)[O-])ncn3C)nc2c1		13.8	67 µM (inactive)	18.5 µM (inactive)	13.9 µM (inactive)	35.2 µM (inactive)	17.5 µM (inactive)	46.8 µM (inactive)	18 µM (inactive)	> 100 µM (inactive)	23.2 µM (inactive)	19 µM (inactive)	16.1 µM (inactive)	16.1 µM (inactive)	37.4 µM (inactive)	25.3 µM (inactive)				
O=S1(=O)OC(c2ccc(O)cc2)(c2ccc(O)cc2)c2ccccc21 [PHENOLSULFONPHTHALEIN]	> 100 µM (inactive)	> 100	> 100 µM (inactive)		> 100 µM (inactive)	> 100 µM (inactive)	> 100 µM (inactive)	> 100 µM (inactive)	> 100 µM (inactive)	> 100 µM (inactive)		> 100 µM (inactive)	> 100 µM (inactive)	> 100 µM (inactive)	> 100 µM (inactive)	> 100 µM (inactive)	> 100 µM (inactive)	> 100 µM (inactive)	> 100 µM (inactive)	> 100 µM (inactive)
